In patent US20240285587A1, “NOVEL THERAPEUTIC AGENT THAT SUPPRESSES METASTASIS AND PROLIFERATION OF OSTEOSARCOMA AND GLIOMA” (JAPANESE FOUNDATION FOR CANCER RESEARCH, priority 2021, published 2024):
Entries after “also recorded” stand apart in the source; their conditions may differ.

Tests used:
osteosarcoma cells G-292 = assay: Osteosarcoma G-292 subcutaneous xenograft model, tumor volume; format: in vivo; details: oral 30 mg/kg, 5 consecutive days and withdrawal for 2 days from Day 1, from Day 14, SCID-beige mouse
Description: Into each female SCID-beige mouse, 8.2×10^5 cells of the osteosarcoma cells G-292 were subcutaneously transplanted (Day 0), and on the day after the transplantation (Day 1) oral administration according to a dosing schedule of continuous administration of the LPAR1 antagonist BMS-986020 of 30 mg/kg for 5 consecutive days and withdrawal for 2 days was initiated (FIG. 8A). The proliferation of tumor was analyzed by measuring the major axis and minor axis of tumor and calculating the tumor volume as major axis (mm)×[minor axis (mm)]^2×½.

[1] = system: human glioblastoma cells Onda7, YKG-1, and 42-MG-BA; assay: Glioblastoma cell viability with LPAR1 antagonists, CellTiter-Gro; format: cell-based; details: different concentrations, 72 hours; Onda7, YKG-1, 42-MG-BA
Description: Next, examination was carried out to determine whether LPAR1 antagonists had effects on viabilities of glioblastoma cells. On a 96-well plate, 1500 to 3000 cells of each of the human glioblastoma cells Onda7, YKG-1, and 42-MG-BA were seeded and treated with any of the LPAR1 antagonists Ki16425, BMS-986020, and ONO-7300243 in different concentrations, and the cell viabilities 72 hours thereafter were determined with CellTiter-Gro reagent (FIG. 10A).

Onda7 cells = assay: Glioblastoma intracranial xenograft model (Onda7 with Akaluc luciferase), IVIS imaging; format: in vivo, mouse; details: oral 50 mg/kg or 100 mg/kg, 5 days on/2 days off from 3 weeks after transplantation; from 2 weeks after initiation, even for 50 mg/kg
Description: Examination was carried out to determine whether an LPAR1 antagonist exerts antitumor effect even for glioblastoma. Into each female SCID-beige mouse, 2×10^5 Onda7 cells with Akaluc luciferase introduced therein were intracranially transplanted. Three weeks after the transplantation, oral administration according to a dosing schedule of continuous administration of the LPAR1 antagonist BMS-986020 of 50 mg/kg or 100 mg/kg for 5 consecutive days and withdrawal for 2 days was initiated (FIG. 11A). For tumor volume, the enzymatic activity of AkaLuc luciferase stably expressed in Onda7 cells was quantified with an IVIS imaging system (FIG. 11B).

[2] = system: human glioblastoma cells Onda7, YKG-1, and 42-MG-BA; assay: Transwell chamber migration ability of glioblastoma cells with LPA; format: cell-based; details: 24 hours
Description: Accordingly, the effects of LPAR1 antagonists to suppress metastasis and cell proliferation are also expected to be exerted for glioma. In view of the fact that glioblastoma is the highest malignancy tumor among gliomas as described above, migration ability with addition of LPA was analyzed with glioblastoma cell strains. Analysis was performed to determine whether the mobility of glioblastoma cells is augmented in the presence of LPA. In a Transwell chamber, the human glioblastoma cells Onda7 (obtained from JCRB Cell Bank), YKG-1 (obtained from JCRB Cell Bank), and 42-MG-BA (obtained from DSMZ) were seeded at 1×10^5 cells each, with addition of 100 nM LPA as a migration factor to the underlying chamber, and 24 hours thereafter cells that migrated to the underlying chamber were stained with crystal violet and quantified. Before being collected, the cells were pretreated with 100 nM Ki16425, which is an LPAR antagonist, for 1 hour, and subjected to analysis of migration ability still in the presence of 100 nM Ki16425.

[3] = system: osteosarcoma cells MG-63, HuO9, and G-292; assay: Matrigel Invasion Chamber invasive ability of osteosarcoma cells with platelet releasate; format: cell-based, human; details: cells treated with Ki16425 in advance (100 nM), platelet releasate in underlying chamber, 22 to 24 hours
Description: The osteosarcoma cells MG-63, HuO9, and G-292 were each seeded in an insert (upper chamber) of a Matrigel Invasion Chamber (Corning Incorporated) at 1.5×10^5 cells/0.5 mL with the platelet releasate put in the lower chamber, and left to stand at 37° C. for 22 to 24 hours, and then cells on the top surface of the insert were completely wiped away, fixation was performed with 4% paraformaldehyde, and cells on the bottom surface of the membrane of the insert, i.e., invaded cells were stained with 1% crystal violet (FIG. 1B).
(§1) In addition, analysis of invasive ability was carried out by using a Matrigel Invasion Chamber in the same manner as for FIG. 1C (FIG. 3D). […] Accordingly, the reduction in migration ability and invasive ability due to Ki16425 was confirmed not to be caused by cytotoxicity to the cells.

LPAR3 = biological target: T1, LPAR3 (Homo sapiens, UniProt Q9UBY5); details: cited from earlier work
T1 sequence (Q9UBY5 1-353): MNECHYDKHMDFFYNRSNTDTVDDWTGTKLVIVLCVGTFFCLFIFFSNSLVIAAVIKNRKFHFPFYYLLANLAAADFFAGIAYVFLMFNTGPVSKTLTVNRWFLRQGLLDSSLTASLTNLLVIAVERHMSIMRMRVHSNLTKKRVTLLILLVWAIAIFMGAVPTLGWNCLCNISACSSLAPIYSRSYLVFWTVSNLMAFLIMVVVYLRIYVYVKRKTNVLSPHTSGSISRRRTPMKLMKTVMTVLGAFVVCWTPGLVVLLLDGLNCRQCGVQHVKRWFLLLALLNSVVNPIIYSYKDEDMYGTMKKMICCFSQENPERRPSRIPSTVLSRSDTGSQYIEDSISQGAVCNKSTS

G-292 and MG-63 cells = assay: Cell viability / cytotoxicity of osteosarcoma cells with Ki16425 (FIG. 3E); format: cell-based, human
Description: as §1

[4] = system: MG-63, HuO9, or G-292 cells; assay: Transwell chamber migration ability of osteosarcoma cells with LPA as chemoattractant; format: cell-based, human; details: 4 to 6 hours, MG-63, HuO9, G-292
Description: Next, the influence of LPA on migration ability and invasive ability was analyzed (FIG. 3C). Analysis of migration ability was carried out by using a Transwell chamber (Corning Incorporated, 8.0 μm pore). In an insert, 1×10^5 MG-63, HuO9, or G-292 cells suspended in 0.3 mL of serum-free MEM medium were seeded with 10 nM LPA as a chemoattractant in 1.25 mL of serum-free MEM medium put in the lower chamber, left to stand for 4 to 6 hours and then fixed, and subjected to analysis of migration ability (LPA). Separately, cells after being pretreated with 100 nM Ki16425 (Santa Cruz Biotechnology, Inc.), which is an LPAR antagonist, for 1 hour were collected, seeded in an insert, and subjected to analysis of migration ability in the presence of 100 nM Ki16425 (LPA+Ki16425).

LPAR2 = LPAR2 (Homo sapiens, UniProt Q9HBW0); details: cited from earlier work
LPAR2, sequence (Q9HBW0 whole entry, species assumed): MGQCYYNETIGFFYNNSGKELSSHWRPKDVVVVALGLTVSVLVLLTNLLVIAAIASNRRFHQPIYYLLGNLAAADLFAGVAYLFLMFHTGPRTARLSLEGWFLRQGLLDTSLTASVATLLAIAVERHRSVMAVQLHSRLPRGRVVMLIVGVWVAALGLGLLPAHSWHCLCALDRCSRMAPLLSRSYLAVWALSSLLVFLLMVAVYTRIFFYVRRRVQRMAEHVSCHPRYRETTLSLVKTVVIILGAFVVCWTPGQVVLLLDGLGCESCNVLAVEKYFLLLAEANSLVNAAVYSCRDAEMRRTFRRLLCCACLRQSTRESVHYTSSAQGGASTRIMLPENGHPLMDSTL

LPAR1 = LPAR1 (Homo sapiens, UniProt Q92633); details: cited from earlier work
LPAR1, sequence (Q92633 whole entry, species assumed): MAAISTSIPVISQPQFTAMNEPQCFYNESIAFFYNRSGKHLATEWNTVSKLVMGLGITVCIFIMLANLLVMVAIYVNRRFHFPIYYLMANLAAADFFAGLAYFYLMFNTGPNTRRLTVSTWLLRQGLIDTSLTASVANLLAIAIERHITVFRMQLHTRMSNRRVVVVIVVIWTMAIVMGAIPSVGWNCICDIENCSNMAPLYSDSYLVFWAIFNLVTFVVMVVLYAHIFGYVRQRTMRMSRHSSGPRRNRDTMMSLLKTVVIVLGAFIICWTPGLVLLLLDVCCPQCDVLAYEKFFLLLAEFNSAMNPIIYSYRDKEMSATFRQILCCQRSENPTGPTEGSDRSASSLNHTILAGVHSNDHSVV

HuO9/Akaluc cells = assay: Lung metastasis mouse model, intravenously injected HuO9/Akaluc cells, bioluminescent imaging; format: in vivo
Description: Into each female SCID-beige mouse (C.B-lgh-1b/GbmsTac-Prkdc^scid-Lyst^bgN7, Charles River Laboratories Japan, Inc.), 1×10^6 MG-63/Akaluc/sgCTRL or MG-63/Akaluc/sgLPAR #1 cells were intravenously injected, 3 hours and 7 days after, 100 μL of 5 mM AkaLumine-HCL was intraperitoneally injected and in vivo luminescence imaging (bioluminescent imaging, BLI) was carried out. The BLI was carried out by using an IVIS imaging system (PerkinElmer, Inc.). […] On the day of intravenous injection of cells (Day 0), the both types of cells were captured in lungs to the same degree.
Next, effects of an LPAR1 antagonist was examined. Analysis with a mouse model was carried out by using ONO-7300243 (Cayman Chemical Company), which is one of LPAR1 inhibitors. […] In the experiment, ONO-7300243 was used at different doses of 10 mg/kg and 30 mg/kg.
The BLI was carried out for 1.5 to 3 hours, 1 day, and 2 days after the administration (FIG. 6B). Immediately after the administration, it was observed that HuO9/Akaluc cells were captured in lungs at any dose.

MG-63 cells = assay: Immunostaining of phosphorylated AKT and F-actin in LPA-treated osteosarcoma cells; format: cell-based, human; details: 100 nM LPA for 4 hours, serum-free MEM
Description: LPA receptors are G-protein-coupled receptors, and LPAR1 is known to activate three G proteins, Gαi/0, Gαq/11, and Gα12/13, and to activate a signal transduction system including a PI3K/AKT pathway. MG-63 cells were cultured with serum-free MEM medium overnight, then treated with 100 nM LPA for 4 hours, immunostained through a conventional method with an anti-phosphorylated AKT antibody (an antibody to detect phosphorylation of S473), rhodamine-labeled phalloidin (for binding to F actin), and Hoechst 33342 (for staining nuclei), and observed with a microscope (FIG. 3B). […] Although results are not shown herein, time-lapse analysis with a microscope was carried out to analyze effects of LPA on osteosarcoma cells, and it was observed that osteosarcoma cells formed numerous protrusions (pseudopodia) as a result of the LPA treatment.

Q: Which results are given for `Cc1noc(-c2ccc(-c3ccc(C4(C(=O)O)CC4)cc3)cc2)c1NC(=O)O[C@H](C)c1ccccc1` [BMS-986020]?
A: tumor volume / tumor proliferation (osteosarcoma cells G-292; 30 mg/kg): significant tumor proliferation-suppressing effect; tumor volume / tumor proliferation (osteosarcoma cells G-292; listed as BMS986020, 30 mg/kg): tumor proliferation is suppressed; cell viabilities [1]: Reduced cell viabilities; proliferation of glioblastoma cells / relative tumor volume (Onda7 cells): almost comparable to that at the transplantation

Q: Which results are given for `Cc1noc(-c2ccc(CSCCC(=O)O)cc2)c1NC(=O)OC(C)c1ccccc1Cl` (stereo not drawn) [Ki16425]?
A: migration ability ([2]; 100 nM Ki16425 (1 hour pretreatment and during assay), 100 nM LPA): largely reduced migration ability; invasive ability [3]: cancellation of the effects of platelet releasate; also recorded: largely reduced invasive ability; cell viabilities [1]: Reduced cell viabilities; inhibitory effect to LPAR3 (LPAR3): exhibits inhibitory effect; cytotoxicity (G-292 and MG-63 cells; 100 nM, 4 to 6 hours (migration) or 22 to 24 hours (invasion)): no cytotoxicity was found; cell viabilities (G-292 and MG-63 cells; cultured for 72 hours, Ki16425 at 500 nM or more, G-292 and MG-63): reduced cell viabilities; migration ability ([4]; 100 nM Ki16425 (1 hour pretreatment and during assay), 10 nM LPA in lower chamber): cancellation of the effects of LPA; also recorded: largely reduced migration ability; inhibitory effect to LPAR2 (LPAR2): exhibits inhibitory effect; inhibitory effect to LPAR1 (LPAR1): exhibits inhibitory effect

Q: What does the source list for `COc1cc(C(=O)N(CCCc2ccccc2)Cc2ccc(CC(=O)O)cc2)cc(OC)c1C` [ONO-7300243]?
A: cell viabilities [1]: Reduced cell viabilities; Total Flux measured with the IVIS (HuO9/Akaluc cells; Day 1, 30 mg/kg administration group vs solvent administration group): significant difference; Total Flux measured with the IVIS (HuO9/Akaluc cells; Day 2, 10 mg/kg administration group vs 30 mg/kg administration group): significant difference; Total Flux measured with the IVIS (HuO9/Akaluc cells; day of injection of cells, among the groups): no significant difference; osteosarcoma cells captured in lungs (BLI) / lung metastasis (HuO9/Akaluc cells; oral 10 mg/kg and 30 mg/kg before i.v. HuO9/Akaluc cells, a day or two later, vs solvent administration group): lung metastasis is suppressed; also recorded: reduction of osteosarcoma cells captured in lungs

Q: For lysophosphatidic acid [LPA], which “migration ability (effect of LPA)” value ([2]; 100 nM LPA as migration factor) is on record?
A: migration ability was largely enhanced

Q: And the “migration ability (effect of LPA)” value ([4]; 10 nM LPA as chemoattractant)?
A: migration ability largely enhanced

Q: What about the “phosphorylated AKT (S473)” value (MG-63 cells) of the same compound?
A: Activated AKT was found
